This is an account of results in a melting point compilation (Tetko et al.).

SMILES strings stand for the structures.

Broadly, the melting point is the temperature of the solid-liquid transition. Turning to `Nc1cnc(-c2ccccc2)nc1`, the melting point lay within 81 to 83 °C.

`Cn1c(C(=O)O)ccc1-c1ccccc1` came in with a melting point of 143 to 145 °C.

`Cc1cc(C)n2c(C=O)cnc2n1` yielded a melting point of 169 to 171 °C.

Compound `Nc1ccccc1C(=O)NCC(F)(F)F` displayed a melting point of 125 to 130 °C.

In turn, `NC(=NO)c1cc(Br)cs1` had a melting point of 132 to 134 °C.

Consider `N#Cc1c[nH]c2ccc(Br)cc2c1=O`, for which the melting point fell in the range of 359 to 361 °C.

Regarding `CCc1cc(O)ncc1Br`, the melting point lay within 109 to 111 °C.

`Nc1ccc(CC(=O)N2CCN(c3ncccn3)CC2)cc1` yielded a melting point of 193 to 195 °C.

Compound `CC(=O)NC12CC3CC(C1)CC(C(=O)O)(C3)C2` gave a melting point of 258 to 260 °C.

Compound `Cc1nc2ccccc2n1CCN` displayed a melting point of 235 to 237 °C.

With `CCCNC(=O)c1cccnc1Cl`, the melting point lay in the range of 63 to 65 °C.

For the compound `COc1ccc(C(=O)O)cc1S(=O)(=O)NC(C)C`, the melting point lay within 194 to 197 °C.

Compound `Nc1[nH]nc(CCC2CCCCC2)c1-c1ccc(Br)cc1` yielded a melting point of 168 to 170 °C.

`O=C(NCCCN1CCCC1)OCC(F)(F)F` returned a melting point of 36 to 38 °C.

As to `N#Cc1c(F)cccc1Sc1ccccc1`, the melting point was in the range of 108 to 110 °C.

Consider `CC(=O)Nc1c[nH]c(C)c1C(=O)O`, for which the melting point was in the range of 183 to 185 °C.

With `O=[N+]([O-])c1ccc(N2CCOCC2)nc1`, the melting point fell in the range of 143 to 145 °C.

`CN(C)CC(O)C(F)(F)F` (centres undefined): the melting point was in the range of 63 to 65 °C.

As to `CCOC(=O)COc1ccc(C(N)=S)cc1`, the melting point lay within 126 to 128 °C.

In the case of `CSc1cc2c(cc1C=O)OCCO2`, the melting point was 112 to 114 °C.

With `CCn1nc(C(F)(F)F)c(C(=O)O)c1C(F)(F)F`, the melting point lay in the range of 89 to 91 °C.

Compound `COC(=O)c1c[nH]c(=O)c([N+](=O)[O-])c1` registered a melting point of 214 to 216 °C.

In turn, `O=Cc1ccnc2[nH]ccc12` gave a melting point of 169 to 171 °C.

The compound `CC(C)Oc1ccc2ccccc2c1C=O` gave a melting point of 65 to 67 °C.

Take `CC(Br)C(=O)C12CC3CC(CC(C3)C1)C2` (centres undefined): the melting point was in the range of 86 to 88 °C.

`O=C1CCCc2cc(S(=O)(=O)Cl)ccc2N1`: the melting point is 208 to 210 °C.

Compound `CNC(=O)COc1cccc(Br)c1` had a melting point of 94 to 96 °C.

As to `O=C(O)Cc1cc(=O)n(-c2ccccc2)[nH]1`, the melting point was in the range of 98 to 102 °C.

As for `Oc1ncncc1Br`, the melting point fell in the range of 193 to 195 °C.

Compound `COc1ccc(C(=O)NN)c(OC)c1` returned a melting point of 112 to 114 °C.

In turn, `CCn1c(S)nnc1-c1ccc(OC)cc1` displayed a melting point of 178 to 180 °C.

As for `Cc1nc(N)oc1C`, the melting point was 64 to 66 °C.

`Cc1ccc(-c2cc(CBr)on2)cc1` showed a melting point of 86 to 88 °C.

On to `C#CCNC(=O)Nc1cccc([N+](=O)[O-])c1`, for which the melting point was in the range of 173 to 175 °C.

Turning to `c1cc(-n2ccnc2)ccn1`, the melting point was 104 to 106 °C.

Regarding `O=C(CCCl)N1CCN(c2ccc(F)cc2)CC1`, the melting point lay within 99 to 101 °C.

Consider `COc1ccc(CCC(=O)O)cc1Br`, for which the melting point was in the range of 95 to 97 °C.

As to `NC(=O)c1ccc(Cl)cc1O`, the melting point lay within 188 to 190 °C.

The compound `O=C(O)c1ccc(-c2ccc3c(c2)OCCO3)s1` returned a melting point of 204 to 206 °C.

For the compound `CC(=O)c1ccc(OCC(=O)N2CCOCC2)cc1`, the melting point fell in the range of 55 to 59 °C.

`O=C(O)c1c[nH]c2ccc(F)cc12` had a melting point of 225 to 227 °C.

In turn, `CN1CCN(C)c2cc(N)ccc2C1=O` registered a melting point of 188 to 190 °C.

In the case of `CC(=O)c1c[nH]c(C(=O)N2CCCC(CO)C2)c1` (centres undefined), the melting point fell in the range of 146 to 148 °C.

Compound `CCOCCOc1c(N)cccc1Cl` returned a melting point of 65 to 67 °C.

`CCCn1c(C)c(C(=O)O)c2cc(OC)ccc21` registered a melting point of 171 to 173 °C.

Consider `Cc1nc(Cl)ccc1CC(=O)O`, for which the melting point was in the range of 134 to 136 °C.

With `NS(=O)(=O)c1cc(Cl)c(Br)s1`, the melting point lay in the range of 147 to 149 °C.

As for `Cc1nnc(S)n1-c1cccc(N)c1`, the melting point lay within 219 to 221 °C.

The compound `Oc1ccc2oc3c(c2c1)CCCC3` came in with a melting point of 103 to 105 °C.
